The source of these data is US20250270445A1, “COMPOUNDS AND USES THEREOF IN FIELD OF OPTOELECTRONICS” (Zhejiang Brilliant Optoelectronic Technology Co.,Ltd., priority 2022, published 2025).

The structures appear in SMILES notation. A value given as a limit tells only on which side of the number the result lay.

Holding throughout (format): physicochemical
A short description of data set [1]: Solubility of compounds in toluene. The protocol:
The solubility of the compounds in the toluene were determined as follows: • 1. 1000 mg of toluene solution was placed in the transparent glass sample bottle. • 2. A certain mass of the compound was added into the toluene, and oscillated until completely dissolved. • 3. After the compound was completely dissolved, a certain mass of the compound was further added into the toluene, and oscillated. • 4. The above steps were repeated until the compound wasn't dissolved any more. • 5. The total mass of the compound added was recorded and the solubility was obtained by calculation.

Data set [2] in a line: Absorption spectrum, emission spectrum and extinction coefficient in toluene solution. To be noted: for Molar extinction coefficient of the toluene solution: maximum absorption peak. The protocol: The extinction coefficients of the compounds and their absorption and emission spectrums in the solution were determined as follows: • 1. The compound with a certain amount of substance concentration in the toluene was prepared in a volumetric flask. • 2. The absorption spectrum of the solution was measured by using an ultraviolet-visible spectrophotometer (Puxi T9s) to obtain the absorption peak wavelength. • 3. The absorbance of the maximum absorption peak divided by the amount of substance concentration is the molar extinction coefficient of the compound. • 4. The emission spectrum of the solution was measured by using a fluorescent spectroscope (Hitachi, F-4700 FL Spectrophotometer) to obtain the emission peak wavelength.

Data set [3] can be described thus: Absorption and emission spectrum in spin-coated film. Conditions: for Absorption peak of the film / Emission peak of the film: spin-coated film. The protocol:
The absorption and emission spectrums of the compounds in the film were determined as follows: • 1. The compound with a certain concentration in the toluene was prepared. • 2. The prepared toluene solution was dropped onto a clean glass substrate. • 3. Spin-coating, and then heating at the 80° C. for 1 min. • 4. The absorption spectrum of the film was measured by using an ultraviolet-visible spectrophotometer (Puxi T9s) to obtain the absorption peak wavelength. • 5. The emission spectrum of the film was measured by using a fluorescent spectroscope (Hitachi, F-4700 FL Spectrophotometer) to obtain the emission peak wavelength.

A short description of data set [4]: UV stability of compounds in toluene (absorbance decay to 80%). To be noted: 1×10^−5 mol/L in toluene, UV LEDs 365 nm & 255 nm, time to 80% absorbance, normalized to comparative compound 2 as 100%. The protocol: The compound was dissolved in the toluene with a concentration of 1×10^−5 mol/L. 3 mL solution was added to the cuvette with a lid and the lid was screwed on tightly, then the cuvette was placed in the ultraviolet-visible spectrophotometer to test the absorption spectrum, the absorbance of the maximum absorption peak was recorded as the initial value. The cuvette was placed at a distance of 12 cm from the UV LEDs (365 nm & 255 nm), irradiated for a period and tested its absorption spectrum, then continued to be irradiated after the test, and repeated until the absorbance decayed to 80% of its initial value, the time was recorded as t80.

As for `CC(C)(C)c1ccc2c(c1)c1cc(C(C)(C)C)cc3c1n2-c1cccc2c1B3c1cc3c4ccccc4c4ccccc4c3c3c4c5c6ccccc6c6ccccc6c5ccc4n-2c13` [E2], the “Solubilities(/100 g, toluene)” value in data set [1] was more than 0.7 g/100 g toluene. Further, in data set [2], the “Absorption peak of the toluene solution” value amounted to 507 nm, the “Emission peak of the toluene solution” value is 523 nm and the “Molar extinction coefficient of the toluene solution” value (shortened to “Molar extinction coefficient”) was 4.8 × 10^4 L · mo 1^−1.
The corresponding values for `CC(C)(C)c1ccc2c(c1)c1cc(C(C)(C)C)cc3c1n2-c1cc(-c2c(-c4ccccc4)cc(-c4ccccc4)cc2-c2ccccc2)cc2c1B3c1cc3c4ccccc4c4ccccc4c3c3c4c5c6ccccc6c6ccccc6c5ccc4n-2c13` [E3] are more than 0.7 g/100 g toluene, 512 nm, 530 nm and 6.6 × 10^4 L · mo 1^−1.
For `CCCCCCC1(CCCCCC)c2ccccc2-c2ccc(-c3ccccc3-c3ccc4c5cccc6c(-c7ccccc7-c7ccc8c(c7)C(CCCCCC)(CCCCCC)c7ccccc7-8)ccc(c7cccc3c74)c65)cc21` [comparative compound 1, reference compound], in data set [2], the “Absorption peak of the toluene solution” value came out at 461 nm, the “Emission peak of the toluene solution” value amounted to 485 nm and the “Molar extinction coefficient” value is given as 4.3 × 10^4 L · mo 1^−1. Further, the “red shift of film spectrum versus solution spectrum” value in data set [3] (film versus toluene solution) is on record as “large red shift”. Besides, in data set [3], the “Absorption peak of the film” value was found to be 464 nm and the “Emission peak of the film” value is listed as 543 nm.
As for `c1ccc(N(c2ccc(-c3ccc(N(c4ccccc4)c4ccc5c(c4)c4ccccc4n5-c4ccccc4)cc3)cc2)c2ccc3c(c2)c2ccccc2n3-c2ccccc2)cc1` [comparative compound 2, reference compound], the “Times t80” value in data set [4] is 100%.
As for `Cc1cccc(C)c1N(c1ccccc1)c1cc(N(c2ccccc2)c2c(C)cccc2C)c2ccc3c(N(c4ccccc4)c4c(C)cccc4C)cc(N(c4ccccc4)c4c(C)cccc4C)c4ccc1c2c43` [compound 1], the “Times t80” value in data set [4] is listed as 190%. In addition, in data set [1], the “Solubilities(/100 g, toluene)” value was 1.5 g/100 g toluene. Also, in data set [2], the “Absorption peak of the toluene solution” value was 475 nm, the “Emission peak of the toluene solution” value amounted to 490 nm and the “Molar extinction coefficient” value is 6.0 × 10^4 L · mo 1^−1. Besides, in data set [3], the “Absorption peak of the film” value was 477 nm and the “Emission peak of the film” value is given as 497 nm.
On to `Cc1cccc(C)c1N(c1ccc(C(C)(C)C)cc1)c1cc(N(c2ccc(C(C)(C)C)cc2)c2c(C)cccc2C)c2ccc3c(N(c4ccc(C(C)(C)C)cc4)c4c(C)cccc4C)cc(N(c4ccc(C(C)(C)C)cc4)c4c(C)cccc4C)c4ccc1c2c43` [compound 3], for which the “Times t80” value in data set [4] is reported as 212%. The “Solubilities(/100 g, toluene)” value in data set [1] stood at 4.2 g/100 g toluene. In data set [2], the “Absorption peak of the toluene solution” value came out at 477 nm, the “Emission peak of the toluene solution” value was found to be 495 nm and the “Molar extinction coefficient” value is on record as 3.0 × 10^4 L · mo 1^−1. Besides, in data set [3], the “Absorption peak of the film” value was 479 nm and the “Emission peak of the film” value turned out to be 497 nm.
As to `CC(C)c1cccc(C(C)C)c1N(c1ccc(C(C)(C)C)cc1)c1cc(N(c2ccc(C(C)(C)C)cc2)c2c(C(C)C)cccc2C(C)C)c2ccc3c(N(c4ccc(C(C)(C)C)cc4)c4c(C(C)C)cccc4C(C)C)cc(N(c4ccc(C(C)(C)C)cc4)c4c(C(C)C)cccc4C(C)C)c4ccc1c2c43` [compound 6], the “Solubilities(/100 g, toluene)” value in data set [1] is more than 20 g/100 g toluene.
On to `CC(C)c1cccc(C(C)C)c1N(c1cc(C(C)(C)C)cc(C(C)(C)C)c1)c1cc(N(c2cc(C(C)(C)C)cc(C(C)(C)C)c2)c2c(C(C)C)cccc2C(C)C)c2ccc3c(N(c4cc(C(C)(C)C)cc(C(C)(C)C)c4)c4c(C(C)C)cccc4C(C)C)cc(N(c4cc(C(C)(C)C)cc(C(C)(C)C)c4)c4c(C(C)C)cccc4C(C)C)c4ccc1c2c43` [compound 7], for which the “Solubilities(/100 g, toluene)” value in data set [1] is on record as more than 20 g/100 g toluene.
For `Cc1cc2ccccc2cc1N(c1ccc(C(C)(C)C)cc1)c1cc(N(c2ccc(C(C)(C)C)cc2)c2cc3ccccc3cc2C)c2ccc3c(N(c4ccc(C(C)(C)C)cc4)c4cc5ccccc5cc4C)cc(N(c4ccc(C(C)(C)C)cc4)c4cc5ccccc5cc4C)c4ccc1c2c43` [compound 10], the “Solubilities(/100 g, toluene)” value in data set [1] is reported as more than 2.5 g/100 g toluene.
Regarding `Cc1cc2ccccc2c(C)c1N(c1ccc(C(C)(C)C)cc1)c1cc(N(c2ccc(C(C)(C)C)cc2)c2c(C)cc3ccccc3c2C)c2ccc3c(N(c4ccc(C(C)(C)C)cc4)c4c(C)cc5ccccc5c4C)cc(N(c4ccc(C(C)(C)C)cc4)c4c(C)cc5ccccc5c4C)c4ccc1c2c43` [compound 11], the “Solubilities(/100 g, toluene)” value in data set [1] is more than 2 g/100 g toluene.
On to `Cc1cccc(C)c1N(c1ccc(C(F)(F)F)cc1)c1cc(N(c2ccc(C(F)(F)F)cc2)c2c(C)cccc2C)c2ccc3c(N(c4ccc(C(F)(F)F)cc4)c4c(C)cccc4C)cc(N(c4ccc(C(F)(F)F)cc4)c4c(C)cccc4C)c4ccc1c2c43` [compound 12], for which the “Solubilities(/100 g, toluene)” value in data set [1] is listed as more than 4 g/100 g toluene.
As for `CC(C)c1ccc(-c2cc(-c3cc(C(C)(C)C)cc(C(C)(C)C)c3)ccc2N(c2cc(F)c(F)c(F)c2)c2cc(N(c3cc(F)c(F)c(F)c3)c3ccc(-c4cc(C(C)(C)C)cc(C(C)(C)C)c4)cc3-c3ccc(C(C)C)cc3)c3ccc4c(N(c5cc(F)c(F)c(F)c5)c5ccc(-c6cc(C(C)(C)C)cc(C(C)(C)C)c6)cc5-c5ccc(C(C)C)cc5)cc(N(c5cc(F)c(F)c(F)c5)c5ccc(-c6cc(C(C)(C)C)cc(C(C)(C)C)c6)cc5-c5ccc(C(C)C)cc5)c5ccc2c3c54)cc1` [compound 14], the “Solubilities(/100 g, toluene)” value in data set [1] is more than 5 g/100 g toluene. Further, in data set [2], the “Absorption peak of the toluene solution” value is on record as 475 nm, the “Emission peak of the toluene solution” value is given as 494 nm and the “Molar extinction coefficient” value is on record as 5.1 × 10^4 L · mo 1^−1. Besides, in data set [3], the “Absorption peak of the film” value turned out to be 471 nm and the “Emission peak of the film” value was determined as 493 nm.
Turning to `CCCCCCCCc1ccc(-c2c(N(c3cc(F)c(F)c(F)c3)c3cc(N(c4cc(F)c(F)c(F)c4)c4ccc5ccccc5c4-c4ccc(CCCCCCCC)cc4)c4ccc5c(N(c6cc(F)c(F)c(F)c6)c6ccc7ccccc7c6-c6ccc(CCCCCCCC)cc6)cc(N(c6cc(F)c(F)c(F)c6)c6ccc7ccccc7c6-c6ccc(CCCCCCCC)cc6)c6ccc3c4c65)ccc3ccccc23)cc1` [compound 17], the “Solubilities(/100 g, toluene)” value in data set [1] is more than 4 g/100 g toluene. In data set [2], the “Absorption peak of the toluene solution” value was determined as 475 nm, the “Emission peak of the toluene solution” value came to 494 nm and the “Molar extinction coefficient” value was 5.8 × 10^4 L · mo 1^−1. For the same compound, in data set [3], the “Absorption peak of the film” value came out at 476 nm and the “Emission peak of the film” value is 497 nm.
With `CCCCCCCCc1ccc(-c2cc(N(c3ccc(C(C)(C)C)cc3)c3ccc(C(C)(C)C)cc3)ccc2N(c2cc(F)c(F)c(F)c2)c2cc(N(c3cc(F)c(F)c(F)c3)c3ccc(N(c4ccc(C(C)(C)C)cc4)c4ccc(C(C)(C)C)cc4)cc3-c3ccc(CCCCCCCC)cc3)c3ccc4c(N(c5cc(F)c(F)c(F)c5)c5ccc(N(c6ccc(C(C)(C)C)cc6)c6ccc(C(C)(C)C)cc6)cc5-c5ccc(CCCCCCCC)cc5)cc(N(c5cc(F)c(F)c(F)c5)c5ccc(N(c6ccc(C(C)(C)C)cc6)c6ccc(C(C)(C)C)cc6)cc5-c5ccc(CCCCCCCC)cc5)c5ccc2c3c54)cc1` [compound 18], the “Solubilities(/100 g, toluene)” value in data set [1] was more than 10 g/100 g toluene. Moreover, in data set [2], the “Absorption peak of the toluene solution” value was 492 nm, the “Emission peak of the toluene solution” value worked out at 520 nm and the “Molar extinction coefficient” value is reported as 5.1 × 10^4 L · mo 1^−1. Besides, in data set [3], the “Absorption peak of the film” value was 487 nm and the “Emission peak of the film” value was 518 nm.
Regarding `CC(C)c1ccc(N(c2cc(F)c(F)c(F)c2)c2cc(N(c3cc(F)c(F)c(F)c3)c3ccc(C(C)C)cc3/C=C/c3ccc(C(C)(C)C)cc3)c3ccc4c(N(c5cc(F)c(F)c(F)c5)c5ccc(C(C)C)cc5/C=C/c5ccc(C(C)(C)C)cc5)cc(N(c5cc(F)c(F)c(F)c5)c5ccc(C(C)C)cc5/C=C/c5ccc(C(C)(C)C)cc5)c5ccc2c3c54)c(/C=C/c2ccc(C(C)(C)C)cc2)c1` [compound 19], in data set [1], the “Solubilities(/100 g, toluene)” value is recorded as more than 5 g/100 g toluene.
